{
  "source": "paper PMC8522722",
  "about": "“Safety and Pharmacokinetics in Human Volunteers of Taniborbactam (VNRX-5133), a Novel Intravenous β-Lactamase Inhibitor” (Antimicrobial Agents and Chemotherapy, 2021)",
  "key": {"[1]": {"assay": "Safety and tolerability, treatment-emergent adverse events, SAD part", "type": "in vivo, human", "protocol": "Eligible subjects were randomized to receive either taniborbactam or placebo in a 3:1 ratio within dose cohorts in both the SAD and MAD parts of the study. Each dose cohort in the SAD part of the study enrolled 8 subjects, and each dose cohort in the MAD part of the study enrolled 12 subjects. In the SAD part, subjects received 62.5, 125, 250, 500, 1,000, or 1,500 mg taniborbactam as a 2-h intravenous (i.v.) infusion. In the MAD part, subjects received 2-h intravenous i.v. infusions of 250, 500, or 750 mg taniborbactam q8h over 10 days, ending after a final morning dose on day 10 (total of 28 doses).\nSafety was assessed based on the occurrence of adverse events and evaluation of laboratory tests (chemistry, hematology, urinalysis), physical examination, vital signs, and 12-lead electrocardiograms (ECGs) that were performed throughout the study. Safety was followed through 7 days postdose in the SAD part and followed through 7 days post-last dose in the MAD part."}, "[2]": {"design": "species or system human", "conditions": "in vivo", "source_text": "To assess possible metabolites of taniborbactam, plasma and urine samples were pooled across subjects by time points, processed, and analyzed by ultra-high performance liquid chromatography tandem mass spectrometry with a quadrupole time-of-flight mass spectrometer, for acquisition of high-resolution accurate mass data, in positive mode with electrospray ionization, incorporating in-line UV detection with a photodiode array detector (Waters Acquity UPLC). The acquired chromatographic and mass spectral data were compared to analogous data obtained for the corresponding predose and placebo-dose samples to identify metabolites potentially associated with taniborbactam metabolism. Chromatographic peaks observed to be unique to the samples were subject to investigation by mass spectrometric techniques."}, "[3]": {"system": "cefepime-resistant β-lactamase-producing pathogens", "design": "method as in ref 15, 16 = [15]; 15 Georgiou P-C , Siopi M , Tsala M , Lagarde C , Kloezen W , Donnelly R , Meletiadis J , Mouton J . 2018 . VNRX-5133, a novel broad-spectrum beta-lactamase inhibitor, enhances the activity of cefepim || [16]; 16 Weiss W , Pulse M , Nguyen P , Valtierra D , Peterson K , Carter K , Pevear D , Burns C , Xerri L . 2018 . Efficacy of cefepime/VNRX-5133, a novel beta-lactamase inhibitor combination, against ceph", "conditions": "cited from earlier work"}},
  "data": [
    {"smiles": "NCCN[C@H]1CC[C@H](CC(=O)N[C@H]2Cc3cccc(C(=O)O)c3OB2O)CC1", "note": "[Taniborbactam]", "values": [
      {"measurement": "deaths, serious adverse events, adverse events leading to discontinuation", "setting": "[1]; SAD and MAD parts", "result": "no deaths, serious adverse events, or adverse events leading to discontinuation"},
      {"measurement": "Adverse event: Abdominal pain", "setting": "[1]; in vivo", "result": "1 (2.8) No. (%)"},
      {"measurement": "Adverse event: Arthralgia", "setting": "[1]; in vivo", "result": "1 (2.8) No. (%)"},
      {"measurement": "Adverse event: Back pain", "setting": "[1]; in vivo", "result": "1 (2.8) No. (%)"},
      {"measurement": "Adverse event: Headache", "setting": "[1]; in vivo", "result": "1 (2.8) No. (%)"},
      {"measurement": "Adverse event: Increased blood CPK", "setting": "[1]; in vivo", "result": "1 (2.8) No. (%)"},
      {"measurement": "Adverse event: Increased hepatic enzyme", "setting": "[1]; in vivo", "result": "1 (2.8) No. (%)"},
      {"measurement": "Adverse event: Migraine", "setting": "[1]; in vivo", "result": "1 (2.8) No. (%)"},
      {"measurement": "Adverse event: Nausea", "setting": "[1]; in vivo", "result": "1 (2.8) No. (%)"},
      {"measurement": "Adverse event: Pharyngitis", "setting": "[1]; in vivo", "result": "0 (0.0) No. (%)"},
      {"measurement": "Adverse event: Viral URI", "setting": "[1]; in vivo", "result": "1 (2.8) No. (%)"},
      {"measurement": "Adverse event: Vomiting", "setting": "[1]; in vivo", "result": "1 (2.8) No. (%)"},
      {"measurement": "changes in vital signs, clinical laboratory evaluations, ECGs, physical examinations", "setting": "[1]; in vivo", "result": "no clinically significant changes"},
      {"measurement": "subjects with adverse events considered by the investigator to be related to treatment", "setting": "[1]; in vivo", "result": 1, "unit": "subject"},
      {"measurement": "biotransformation products with a detectable UV response in pooled plasma samples", "setting": "[2]", "result": "no significant taniborbactam biotransformation products"},
      {"measurement": "in vivo efficacy of cefepime", "setting": "[3]", "result": "restored the in vivo efficacy of cefepime"}
    ]}
  ]
}
